Data taken from US11447503B2, “Pyridine carbamates and their use as GLUN2B receptor modulators” (JANSSEN PHARMACEUTICA NV, priority 2019, dated 2022).
Where a name gives a salt, the structure may show the parent alone.

Columns and labels:
[1] = Liver microsomal stability assay (extraction ratio); type: in vitro ADME; conditions: test compound 1 μM; 0.5 mg/mL liver microsomes, NADPH, 37° C.; species not stated (method: mouse, rat, and human)
Procedure: 5.4. Liver Microsomal Stability Assay (Extraction Ratio)
Microsomal stability studies (see, Chrovian et al, “H-Pyrrolo[3,2-b]pyridine GluN2B-Selective Negative Allosteric Modulators”. ACS Med Chem Lett. 2019 Jan. 10; 10(3):261-266) were conducted on a Biomek® FX Robotic Liquid Handling Workstation (Beckman Coulter, Brea, Calif.), which consists of a 96-channel pipette head, a 12-position workstation deck, and a plate incubator. Test compounds (1 μM) were spiked in a reaction mix consisting of 100 mM potassium phosphate buffer (pH 7.4), 3 mM MgCl2, and 0.5 mg/mL liver microsomes from mouse, rat, and human (BD Gentest). The reaction was brought to 37° C. and initiated by adding NADPH to a final concentration of 1 mM. After mixing on the platedeck, 50 μL aliquots were excised from the reaction plate at 0, 5, 10, 20, 40, and 60 min and quenched with four volumes of acetonitrile spiked with […] of the internal standard phenytoin. Quenched plates were centrifuged at 5700 rpm for 10 min at 4° C., and supernatant was diluted 1:3 in water before LC/MS/MS analysis. The compound half-lives were derived from plots of the In of percent remaining compound over time to determine the intrinsic clearance. The predicted hepatic clearance was derived from the intrinsic clearance value using equations from the well-stirred model (Current Drug Metabolism, 2008, 9, 940-951), where no correction was made plasma protein binding and the blood to plasma concentration ratio was assumed to be one. The extraction ratio (ER) was calculated by dividing the predicted hepatic clearance by species blood flow (Q), where Q is 90, 55, and 21.7 mL/min/kg for mouse, rat and human, respectively.

[2] = biological target: human GluN1/GluN2B NMDA receptors (Homo sapiens, UniProt Q05586+Q13224); test: Cell-based calcium flux (FLIPR) assay on cloned human GluN1/GluN2B ion channels expressed in mammalian cells; conditions: standard assay; glutamate ~EC40, 10 μM glycine; stable Tet-On cell line
Sequence of human GluN1/GluN2B NMDA receptors (Q13224 27-1484, other chains not shown): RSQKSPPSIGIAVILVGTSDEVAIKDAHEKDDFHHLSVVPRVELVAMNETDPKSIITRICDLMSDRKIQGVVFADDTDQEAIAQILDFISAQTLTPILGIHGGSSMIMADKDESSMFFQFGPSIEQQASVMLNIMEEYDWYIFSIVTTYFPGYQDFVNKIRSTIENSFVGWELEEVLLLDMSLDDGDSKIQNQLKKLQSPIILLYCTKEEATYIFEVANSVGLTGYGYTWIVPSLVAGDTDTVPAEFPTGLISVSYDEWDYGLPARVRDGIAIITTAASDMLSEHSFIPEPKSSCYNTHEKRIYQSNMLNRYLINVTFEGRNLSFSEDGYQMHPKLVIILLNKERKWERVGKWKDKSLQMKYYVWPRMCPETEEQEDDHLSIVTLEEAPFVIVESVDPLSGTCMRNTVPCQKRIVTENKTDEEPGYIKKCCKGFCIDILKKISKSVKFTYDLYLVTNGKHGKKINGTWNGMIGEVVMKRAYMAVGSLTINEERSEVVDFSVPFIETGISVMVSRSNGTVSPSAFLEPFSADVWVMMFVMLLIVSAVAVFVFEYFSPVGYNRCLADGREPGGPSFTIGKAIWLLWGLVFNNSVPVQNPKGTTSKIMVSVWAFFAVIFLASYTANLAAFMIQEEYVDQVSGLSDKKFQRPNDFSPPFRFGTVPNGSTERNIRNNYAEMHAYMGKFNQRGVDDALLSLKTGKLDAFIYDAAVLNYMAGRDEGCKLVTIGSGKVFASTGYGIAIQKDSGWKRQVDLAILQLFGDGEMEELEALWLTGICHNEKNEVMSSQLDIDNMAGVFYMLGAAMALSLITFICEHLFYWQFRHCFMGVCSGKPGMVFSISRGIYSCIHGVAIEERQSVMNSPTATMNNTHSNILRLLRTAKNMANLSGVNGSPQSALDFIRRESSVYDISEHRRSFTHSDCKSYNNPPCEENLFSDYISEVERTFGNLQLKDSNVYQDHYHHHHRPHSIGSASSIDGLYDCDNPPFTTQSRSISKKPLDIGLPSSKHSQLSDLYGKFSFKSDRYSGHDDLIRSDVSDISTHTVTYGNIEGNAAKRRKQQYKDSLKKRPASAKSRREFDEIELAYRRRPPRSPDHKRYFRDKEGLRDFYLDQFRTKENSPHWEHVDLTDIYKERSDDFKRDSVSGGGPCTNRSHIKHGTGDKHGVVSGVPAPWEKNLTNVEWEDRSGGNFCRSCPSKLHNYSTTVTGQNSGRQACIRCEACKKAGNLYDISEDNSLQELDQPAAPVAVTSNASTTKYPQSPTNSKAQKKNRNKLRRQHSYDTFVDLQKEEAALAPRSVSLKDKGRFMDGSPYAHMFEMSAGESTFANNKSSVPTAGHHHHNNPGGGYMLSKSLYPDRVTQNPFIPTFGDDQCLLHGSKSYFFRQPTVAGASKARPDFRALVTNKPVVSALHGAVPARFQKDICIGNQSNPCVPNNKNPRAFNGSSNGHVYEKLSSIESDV
Summary of the method: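 Tet-On-induced stable cells expressing human GluN1/GluN2B, Calcium 5 dye. Compounds preincubated 5 min (agonist check), then glutamate at ~EC40 plus 10 μM glycine added for 5 min; Mg2+ and buffer composition differ between standard and HTS formats. FLIPR Tetra fluorescence normalised to control wells; (+)MK-801 as antagonist control.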

SMILES | Extraction Ratio @ 1 μM [1] | IC50 [2] [nM]
O=C1OCCCN1Cc1cncc(-c2ccc(F)c(OC(F)F)c2)c1 [Example 1, 3-[[5-[3-(Difluoromethoxy)-4-fluoro-phenyl]-3-pyridyl]methyl]-1,3-oxazinan-2-one] | 0.49 | 10
CC(c1cncc(-c2ccc(F)c(C(F)F)c2)c1)N1CCOC1=O (racemic) [Example 60, (R/S)-3-[1-[5-[3-(difluoromethyl)-4-fluoro-phenyl]-3-pyridyl]ethyl]oxazolidin-2-one] | 0.42 | 785
O=C1OCCCN1Cc1cncc(-c2ccc(F)c(C(F)F)c2)c1 [Example 38, 3-[[5-[3-(Difluoromethyl)-4-fluoro-phenyl]-3-pyridyl]methyl]-1,3-oxazinan-2-one] | <0.298 | 9
C[C@H]1CN(Cc2cncc(-c3ccc(F)c(C(F)F)c3)c2)C(=O)O1 (single isomer, unassigned) [Example 27, (S*)-3-[[5-[3-(Difluoromethyl)-4-fluoro-phenyl]-3-pyridyl]methyl]-5-methyl-oxazolidin-2-one] | 0.42 | 14
Cc1ncc(-c2ccc(F)c(C(F)F)c2)cc1CN1CCCOC1=O [Example 97, 3-[[5-[3-(Difluoromethyl)-4-fluoro-phenyl]-2-methyl-3-pyridyl]methyl]-1,3-oxazinan-2-one] | 0.55 | 27
O=C1OCCN1Cc1cncc(-c2ccc(F)c(C(F)F)c2)c1 [Example 22, 3-[[5-[3-(Difluoromethyl)-4-fluoro-phenyl]-3-pyridyl]methyl]oxazolidin-2-one] | 0.63 | 11
Cc1ncc(-c2ccc(F)c(C(F)F)c2)cc1CN1CCOC1=O [Example 90, 3-[[5-[3-(Difluoromethyl)-4-fluoro-phenyl]-2-methyl-3-pyridyl]methyl] oxazolidin-2-one] | 0.60 | 13
[2H]C([2H])(c1cncc(-c2ccc(F)c(C(F)F)c2)c1)N1CCOC1=O [Example 54, 3-[Dideuterio-[5-[3-(difluoromethyl)-4-fluoro-phenyl]-3-pyridyl]methyl]oxazolidin-2-one] | 0.61 | 13
O=C1OCCCN1Cc1cncc(-c2ccc(Cl)c(OC(F)F)c2)c1 [Example 53, 3-[[5-[4-chloro-3-(difluoromethoxy)phenyl]-3-pyridyl]methyl]-1,3-oxazinan-2-one] | 0.61 | 
O=C1OCCN1Cc1cncc(-c2ccc(OC(F)(F)F)c(F)c2)c1 [Example 48, 3-[[5-[3-Fluoro-4-(trifluoromethoxy)phenyl]-3-pyridyl]methyl]oxazolidin-2-one] |  | 912
Cc1c(F)ccc(-c2cncc(CN3CCOC3=O)c2)c1F [Example 45, 3-[[5-(2,4-Difluoro-3-methyl-phenyl)-3-pyridyl]methyl]oxazolidin-2-one] |  | 9
COc1ncc(-c2ccc(Cl)c(Cl)c2)cc1CN1CCOC1=O [Example 106, 3-[[5-(3,4-Dichlorophenyl)-2-methoxy-3-pyridyl]methyl]oxazolidin-2-one] |  | 33
O=C1OCCCN1Cc1cncc(-c2ccc(F)c(C(F)(F)F)c2)c1 [Example 52, 3-[[5-[4-Fluoro-3-(trifluoromethyl)phenyl]-3-pyridyl]methyl]-1,3-oxazinan-2-one] |  | 27
O=C1OC2(CCOCC2)CN1Cc1cncc(-c2ccc(F)c(OC(F)F)c2)c1 [Example 20, 2-[[5-[3-(Difluoromethoxy)-4-fluoro-phenyl]-3-pyridyl]methyl]-4,8-dioxa-2-azaspiro[4.5]decan-3-one] |  | 267
O=C1OCCN1Cc1cncc(-c2ccc(F)c(OC(F)F)c2)c1 [Example 2, 3-[[5-[3-(Difluoromethoxy)-4-fluoro-phenyl]-3-pyridyl]methyl]oxazolidin-2-one] |  | 12
Cc1ncc(-c2ccc(F)c(OC(F)F)c2)cc1CN1C(=O)OCC1C (single isomer, unassigned) [Example 82, (R*)-3-[[5-[3-(Difluoromethoxy)-4-fluoro-phenyl]-2-methyl-3-pyridyl]methyl]-4-methyl-oxazolidin-2-one] |  | 66
O=C1OC2(CNC2)CN1Cc1cncc(-c2ccc(F)c(OC(F)F)c2)c1 [Example 43, 6-[[5-[3-(Difluoromethoxy)-4-fluoro-phenyl]-3-pyridyl]methyl]-8-oxa-2,6-diazaspiro[3.4]octan-7-one Trifluoroacetate Salt] |  | 2620
COc1ncc(-c2ccc(Cl)c(OC(F)F)c2)cc1CN1CCOC1=O [Example 107, 3-[[5-[4-Chloro-3-(difluoromethoxy)phenyl]-2-methoxy-3-pyridyl]methyl]oxazolidin-2-one] |  | 11
O=C1OC2(CNC2)CN1Cc1cncc(-c2ccc(F)c(C(F)F)c2)c1 [Example 21, 6-[[5-[3-(Difluoromethyl)-4-fluoro-phenyl]-3-pyridyl]methyl]-8-oxa-2,6-diazaspiro[3.4]octan-7-one Trifluoroacetate Salt] |  | 806
O=C1OCCN1Cc1cncc(-c2cccc(C(F)(F)F)n2)c1 [Example 50, 3-[[5-[6-(Trifluoromethyl)-2-pyridyl]-3-pyridyl]methyl]oxazolidin-2-one] |  | 786
O=C1OCCN1Cc1cc(-c2ccc(F)c(OC(F)F)c2)cnc1OC(F)F [Example 133, 3-[[2-(Difluoromethoxy)-5-[3-(difluoromethoxy)-4-fluoro-phenyl]-3-pyridyl]methyl]oxazolidin-2-one] |  | 76
C[C@H]1COC(=O)N1Cc1cc(-c2ccc(F)c(C(F)F)c2)cnc1C(C)(F)F [Example 142, (4S)-3-[[2-(1,1-Difluoroethyl)-5-[3-(difluoromethyl)-4-fluoro-phenyl]-3-pyridyl]methyl]-4-methyl-oxazolidin-2-one] |  | 2000
O=C1OC2(CCC2)CN1Cc1cncc(-c2ccc(F)c(C(F)F)c2)c1 [Example 32, 6-[[5-[3-(Difluoromethyl)-4-fluoro-phenyl]-3-pyridyl]methyl]-8-oxa-6-azaspiro[3.4]octan-7-one] |  | 26
Cc1ncc(-c2ccc(F)c(C(F)F)c2)cc1CN1CC2(CC2)OC1=O [Example 96, 5-[[5-[3-(Difluoromethyl)-4-fluoro-phenyl]-2-methyl-3-pyridyl]methyl]-7-oxa-5-azaspiro[2.4]heptan-6-one] |  | 31
O=C1OC2(COC2)CN1Cc1cncc(-c2ccc(F)c(C(F)F)c2)c1 [Example 34, 6-[[5-[3-(Difluoromethyl)-4-fluoro-phenyl]-3-pyridyl]methyl]-2,8-dioxa-6-azaspiro[3.4]octan-7-one] |  | 30
C[C@@H]1COC(=O)N1Cc1cc(-c2ccc(F)c(OC(F)F)c2)cnc1OC(F)F [Example 134, (4R)-3-[[-(Difluoromethoxy)-5-[3-(difluoromethoxy)-4-fluoro-phenyl]-3-pyridyl]methyl]-4-methyl-oxazolidin-2-one] |  | 61
C[C@H]1CN(Cc2cc(-c3ccc(F)c(OC(F)F)c3)cnc2C(C)(F)F)C(=O)O1 [Example 148, (5S)-3-[[2-(1,1-Difluoroethyl)-5-[3-(difluoromethoxy)-4-fluoro-phenyl]-3-pyridyl]methyl]-5-methyl-oxazolidin-2-one] |  | 147
CC(F)(F)c1ncc(-c2ccc(F)c(C(F)F)c2)cc1CN1CC2(CC2)OC1=O [Example 141, 5-[[2-(1,1-Difluoroethyl)-5-[3-(difluoromethyl)-4-fluoro-phenyl]-3-pyridyl]methyl]-7-oxa-5-azaspiro[2.4]heptan-6-one] |  | 245
Cc1ncc(-c2ccc(F)c(C(F)F)c2)cc1CN1C(=O)OCC1C (racemic) [Example 95, (R/S)-3-[[5-[3-(difluoromethyl)-4-fluoro-phenyl]-2-methyl-3-pyridyl]methyl]-4-methyl-oxazolidin-2-one] |  | 113
Cc1ncc(-c2ccc(Cl)c(OC(F)F)c2)cc1CN1CCOC1=O [Example 89, 3-[[5-[4-Chloro-3-(difluoromethoxy)phenyl]-2-methyl-3-pyridyl]methyl]oxazolidin-2-one] |  | 14
